We go through one compound from article PMC7904636 (International journal of pharmaceutics, 2021).

Data set [1] can be described thus: Solubility in aqueous medium. The conditions noted are these: precipitation observed when DMSO solution was diluted with HBSS. It is filed as physicochemical.
The test system of another data set is A549 cells. The settings on record: toxic at this concentration or higher, ref Zhu et al., 2020; cited from earlier work.

`CC(C)(C)c1cc(C(C)(C)C)c(NC(=O)c2c[nH]c3ccccc3c2=O)cc1O` [ivacaftor, Ivacaftor]: the “Solubility in aqueous medium” value in data set [1] was “very low solubility”. Further, the “Concentration toxic to A549 cells” value in the data set with A549 cells was at least 8 µg/mL.
